Test results as given in ChEMBL document CHEMBL4507295 (2021).

Experiments:
[1] = target: Serine/threonine-protein kinase D1 (Homo sapiens) (UniProt Q15139); conditions: Compound concentration 1000.0 nM
[2] = target: SRSF protein kinase 3 (Homo sapiens) (UniProt Q9UPE1); conditions: Compound concentration 1000.0 nM
[3] = target: Ribosomal protein S6 kinase alpha-1 (Homo sapiens) (UniProt Q15418); conditions: Compound concentration 1000.0 nM
[4] = system: Phosphatidylinositol 4,5-bisphosphate 3-kinase catalytic subunit alpha isoform (Homo sapiens), P42336 [Q546K]; conditions: Compound concentration 1000.0 nM
[5] = target: Serine/threonine-protein kinase RIO3 (Homo sapiens) (UniProt O14730); conditions: Compound concentration 1000.0 nM
[6] = system: Receptor-type tyrosine-protein kinase FLT3 (Homo sapiens), P36888 [K663Q]; conditions: Compound concentration 1000.0 nM
[7] = target: Cytoplasmic tyrosine-protein kinase BMX (Homo sapiens) (UniProt P51813); conditions: Compound concentration 1000.0 nM
[8] = target: Serine/threonine-protein kinase 17A (Homo sapiens) (UniProt Q9UEE5); conditions: Compound concentration 1000.0 nM
[9] = target: Serine/threonine-protein kinase PAK 5 (Homo sapiens) (UniProt Q9P286); conditions: Compound concentration 1000.0 nM
[10] = target: Phosphatidylinositol 4,5-bisphosphate 3-kinase catalytic subunit alpha isoform (Homo sapiens) (UniProt P42336); conditions: Compound concentration 1000.0 nM
[11] = system: Leucine-rich repeat serine/threonine-protein kinase 2 (Homo sapiens), Q5S007 [G2019S]; conditions: Compound concentration 1000.0 nM
Leucine-rich repeat serine/threonine-protein kinase 2 (Homo sapiens), Q5S007 [G2019S], sequence (Q5S007 whole entry G2019S): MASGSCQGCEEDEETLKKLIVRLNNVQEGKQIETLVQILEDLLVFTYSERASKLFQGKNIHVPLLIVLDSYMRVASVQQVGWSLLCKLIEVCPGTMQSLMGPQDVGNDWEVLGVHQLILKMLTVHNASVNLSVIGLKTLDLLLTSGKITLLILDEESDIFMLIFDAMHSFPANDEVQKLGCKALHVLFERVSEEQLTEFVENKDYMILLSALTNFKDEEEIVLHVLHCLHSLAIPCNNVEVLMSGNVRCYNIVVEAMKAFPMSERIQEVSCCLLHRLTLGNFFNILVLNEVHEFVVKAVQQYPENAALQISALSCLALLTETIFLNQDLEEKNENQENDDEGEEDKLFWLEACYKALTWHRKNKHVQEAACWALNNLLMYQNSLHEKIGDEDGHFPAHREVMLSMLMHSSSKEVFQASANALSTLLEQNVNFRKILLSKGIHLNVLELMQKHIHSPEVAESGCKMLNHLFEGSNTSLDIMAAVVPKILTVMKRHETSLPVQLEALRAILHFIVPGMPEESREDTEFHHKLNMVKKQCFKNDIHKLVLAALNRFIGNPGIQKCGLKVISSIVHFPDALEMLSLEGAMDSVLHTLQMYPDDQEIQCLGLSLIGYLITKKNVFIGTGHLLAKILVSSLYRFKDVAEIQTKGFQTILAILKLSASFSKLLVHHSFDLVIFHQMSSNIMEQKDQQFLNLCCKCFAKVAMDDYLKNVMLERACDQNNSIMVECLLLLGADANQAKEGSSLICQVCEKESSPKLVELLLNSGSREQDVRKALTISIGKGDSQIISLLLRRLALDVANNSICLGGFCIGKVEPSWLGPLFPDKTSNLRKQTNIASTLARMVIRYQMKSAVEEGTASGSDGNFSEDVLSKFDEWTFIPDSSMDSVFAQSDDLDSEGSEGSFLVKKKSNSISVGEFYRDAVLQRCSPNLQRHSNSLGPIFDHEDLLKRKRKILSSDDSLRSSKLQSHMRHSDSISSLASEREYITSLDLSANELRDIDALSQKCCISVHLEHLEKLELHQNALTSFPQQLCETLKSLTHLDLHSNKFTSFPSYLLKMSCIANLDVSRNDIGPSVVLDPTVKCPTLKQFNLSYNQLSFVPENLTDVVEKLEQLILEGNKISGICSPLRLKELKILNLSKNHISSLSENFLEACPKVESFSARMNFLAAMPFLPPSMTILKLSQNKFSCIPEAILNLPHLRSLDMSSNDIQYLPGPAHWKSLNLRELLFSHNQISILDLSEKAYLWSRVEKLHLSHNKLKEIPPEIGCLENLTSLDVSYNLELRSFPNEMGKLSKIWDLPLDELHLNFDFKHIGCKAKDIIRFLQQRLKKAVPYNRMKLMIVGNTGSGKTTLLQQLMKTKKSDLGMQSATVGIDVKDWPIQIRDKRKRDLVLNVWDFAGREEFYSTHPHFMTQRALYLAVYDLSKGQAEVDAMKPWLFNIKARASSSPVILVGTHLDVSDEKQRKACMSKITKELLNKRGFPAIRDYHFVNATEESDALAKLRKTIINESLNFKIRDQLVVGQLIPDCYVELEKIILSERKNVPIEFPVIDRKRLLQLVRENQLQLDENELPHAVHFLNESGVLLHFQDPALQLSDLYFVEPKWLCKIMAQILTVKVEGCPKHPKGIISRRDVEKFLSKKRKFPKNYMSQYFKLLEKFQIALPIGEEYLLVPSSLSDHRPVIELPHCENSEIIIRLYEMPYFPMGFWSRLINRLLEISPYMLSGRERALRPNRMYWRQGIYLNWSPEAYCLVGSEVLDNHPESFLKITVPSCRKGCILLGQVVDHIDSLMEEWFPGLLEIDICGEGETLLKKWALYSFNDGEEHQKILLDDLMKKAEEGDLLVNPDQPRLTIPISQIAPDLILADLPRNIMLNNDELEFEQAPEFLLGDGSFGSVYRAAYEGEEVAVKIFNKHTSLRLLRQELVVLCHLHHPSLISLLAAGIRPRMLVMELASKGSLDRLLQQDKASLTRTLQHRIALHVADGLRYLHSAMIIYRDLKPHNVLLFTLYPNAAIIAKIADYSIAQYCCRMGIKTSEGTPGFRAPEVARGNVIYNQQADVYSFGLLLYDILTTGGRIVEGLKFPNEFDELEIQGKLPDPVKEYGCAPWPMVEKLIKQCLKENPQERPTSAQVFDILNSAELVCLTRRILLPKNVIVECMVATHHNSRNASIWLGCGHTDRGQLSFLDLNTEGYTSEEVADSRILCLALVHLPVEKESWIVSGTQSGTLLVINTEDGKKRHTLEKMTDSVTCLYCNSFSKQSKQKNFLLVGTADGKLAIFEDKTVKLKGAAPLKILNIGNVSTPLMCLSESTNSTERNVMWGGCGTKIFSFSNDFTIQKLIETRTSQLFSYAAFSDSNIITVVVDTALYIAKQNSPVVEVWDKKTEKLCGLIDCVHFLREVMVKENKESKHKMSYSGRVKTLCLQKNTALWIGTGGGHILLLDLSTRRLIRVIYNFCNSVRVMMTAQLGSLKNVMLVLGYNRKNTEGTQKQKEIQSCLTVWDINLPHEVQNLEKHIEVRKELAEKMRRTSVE

[12] = target: Receptor-interacting serine/threonine-protein kinase 4 (Homo sapiens) (UniProt P57078); conditions: Compound concentration 1000.0 nM
[13] = target: Vascular endothelial growth factor receptor 1 (Homo sapiens) (UniProt P17948); conditions: Compound concentration 1000.0 nM
[14] = target: Testis-specific serine/threonine-protein kinase 1 (Homo sapiens) (UniProt Q9BXA7); conditions: Compound concentration 1000.0 nM
Testis-specific serine/threonine-protein kinase 1 (Homo sapiens), sequence (Q9BXA7 whole entry): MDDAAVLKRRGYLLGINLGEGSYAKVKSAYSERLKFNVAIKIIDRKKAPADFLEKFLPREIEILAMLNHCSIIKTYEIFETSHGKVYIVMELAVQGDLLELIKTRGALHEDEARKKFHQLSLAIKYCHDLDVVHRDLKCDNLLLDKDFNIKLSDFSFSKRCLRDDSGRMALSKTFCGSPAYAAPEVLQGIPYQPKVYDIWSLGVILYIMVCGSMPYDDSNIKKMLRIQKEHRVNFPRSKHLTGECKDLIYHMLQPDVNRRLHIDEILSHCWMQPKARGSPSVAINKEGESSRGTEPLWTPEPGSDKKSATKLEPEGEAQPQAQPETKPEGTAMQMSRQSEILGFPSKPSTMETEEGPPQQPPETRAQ

[15] = target: Serine/threonine-protein kinase 35 (Homo sapiens) (UniProt Q8TDR2); conditions: Compound concentration 1000.0 nM
Serine/threonine-protein kinase 35 (Homo sapiens), sequence (Q8TDR2 whole entry): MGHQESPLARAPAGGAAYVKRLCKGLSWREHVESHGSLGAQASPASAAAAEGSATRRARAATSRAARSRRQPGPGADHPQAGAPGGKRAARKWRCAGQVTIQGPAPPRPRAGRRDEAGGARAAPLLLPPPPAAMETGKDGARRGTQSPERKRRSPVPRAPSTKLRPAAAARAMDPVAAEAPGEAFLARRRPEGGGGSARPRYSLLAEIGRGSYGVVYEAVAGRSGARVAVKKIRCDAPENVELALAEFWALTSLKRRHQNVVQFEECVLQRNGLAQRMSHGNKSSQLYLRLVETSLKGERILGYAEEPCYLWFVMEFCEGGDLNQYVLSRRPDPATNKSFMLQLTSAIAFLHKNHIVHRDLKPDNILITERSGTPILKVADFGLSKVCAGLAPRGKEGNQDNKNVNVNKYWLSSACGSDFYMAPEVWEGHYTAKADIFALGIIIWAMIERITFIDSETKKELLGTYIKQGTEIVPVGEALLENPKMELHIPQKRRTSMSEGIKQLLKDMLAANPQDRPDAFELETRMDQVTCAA

[16] = target: High affinity nerve growth factor receptor (Homo sapiens) (UniProt P04629); conditions: Compound concentration 1000.0 nM
[17] = system: Receptor-type tyrosine-protein kinase FLT3 (Homo sapiens), P36888 [D835Y]; conditions: Compound concentration 1000.0 nM
[18] = target: MAP kinase-interacting serine/threonine-protein kinase 2 (Homo sapiens) (UniProt Q9HBH9); conditions: Compound concentration 1000.0 nM
[19] = target: Beta-2 adrenergic receptor (Homo sapiens) (UniProt P07550); conditions: Compound concentration 10.0 uM
[20] = target: Tyrosine-protein kinase receptor UFO (Homo sapiens) (UniProt P30530); conditions: Compound concentration 1000.0 nM
[21] = target: Calcium/calmodulin-dependent protein kinase type II subunit gamma (Homo sapiens) (UniProt Q13555); conditions: Compound concentration 1000.0 nM
[22] = target: Tyrosine-protein kinase Fer (Homo sapiens) (UniProt P16591); conditions: Compound concentration 1000.0 nM
[23] = target: Tyrosine-protein kinase ITK/TSK (Homo sapiens) (UniProt Q08881); conditions: Compound concentration 1000.0 nM
[24] = system: Receptor-type tyrosine-protein kinase FLT3 (Homo sapiens), P36888 [R834Q]; conditions: Compound concentration 1000.0 nM
[25] = system: Fibroblast growth factor receptor 3 (Homo sapiens), P22607 [G697C]; conditions: Compound concentration 1000.0 nM
[26] = system: Proto-oncogene tyrosine-protein kinase receptor Ret (Homo sapiens), P07949 [V804M]; conditions: Compound concentration 1000.0 nM
[27] = target: Epithelial discoidin domain-containing receptor 1 (Homo sapiens) (UniProt Q08345); conditions: Compound concentration 1000.0 nM
[28] = target: Cyclin-dependent kinase 4 (Homo sapiens) (UniProt P11802); conditions: Compound concentration 1000.0 nM
[29] = target: Bone morphogenetic protein receptor type-1A (Homo sapiens) (UniProt P36894); conditions: Compound concentration 1000.0 nM
[30] = target: Phosphatidylinositol 5-phosphate 4-kinase type-2 beta (Homo sapiens) (UniProt P78356); conditions: Compound concentration 1000.0 nM
[31] = target: Serine/threonine-protein kinase RIO1 (Homo sapiens) (UniProt Q9BRS2); conditions: Compound concentration 1000.0 nM
[32] = target: Serine/threonine-protein kinase SIK1 (Homo sapiens) (UniProt P57059); conditions: Compound concentration 1000.0 nM
[33] = system: Proto-oncogene tyrosine-protein kinase receptor Ret (Homo sapiens), P07949 [M918T]; conditions: Compound concentration 1000.0 nM
[34] = target: Serine/threonine-protein kinase 32A (Homo sapiens) (UniProt Q8WU08); conditions: Compound concentration 1000.0 nM
[35] = target: Serine/threonine-protein kinase 24 (Homo sapiens) (UniProt Q9Y6E0); conditions: Compound concentration 1000.0 nM
[36] = system: Tyrosine-protein kinase ABL1 (Homo sapiens), P00519 [Y253F]; conditions: Compound concentration 1000.0 nM
[37] = target: Calcium/calmodulin-dependent protein kinase type II subunit delta (Homo sapiens) (UniProt Q13557); conditions: Compound concentration 1000.0 nM
[38] = system: Tyrosine-protein kinase ABL1 (Homo sapiens), P00519 [M351T]; conditions: Compound concentration 1000.0 nM
[39] = system: Epidermal growth factor receptor (Homo sapiens), P00533 [G719S]; conditions: Compound concentration 1000.0 nM
[40] = target: Serine/threonine-protein kinase WNK1 (Homo sapiens) (UniProt Q9H4A3); conditions: Compound concentration 1000.0 nM
[41] = target: Protein kinase C delta type (Homo sapiens) (UniProt Q05655); conditions: Compound concentration 1000.0 nM
[42] = target: Muscle, skeletal receptor tyrosine-protein kinase (Homo sapiens) (UniProt O15146); conditions: Compound concentration 1000.0 nM
Muscle, skeletal receptor tyrosine-protein kinase (Homo sapiens), sequence (O15146 whole entry): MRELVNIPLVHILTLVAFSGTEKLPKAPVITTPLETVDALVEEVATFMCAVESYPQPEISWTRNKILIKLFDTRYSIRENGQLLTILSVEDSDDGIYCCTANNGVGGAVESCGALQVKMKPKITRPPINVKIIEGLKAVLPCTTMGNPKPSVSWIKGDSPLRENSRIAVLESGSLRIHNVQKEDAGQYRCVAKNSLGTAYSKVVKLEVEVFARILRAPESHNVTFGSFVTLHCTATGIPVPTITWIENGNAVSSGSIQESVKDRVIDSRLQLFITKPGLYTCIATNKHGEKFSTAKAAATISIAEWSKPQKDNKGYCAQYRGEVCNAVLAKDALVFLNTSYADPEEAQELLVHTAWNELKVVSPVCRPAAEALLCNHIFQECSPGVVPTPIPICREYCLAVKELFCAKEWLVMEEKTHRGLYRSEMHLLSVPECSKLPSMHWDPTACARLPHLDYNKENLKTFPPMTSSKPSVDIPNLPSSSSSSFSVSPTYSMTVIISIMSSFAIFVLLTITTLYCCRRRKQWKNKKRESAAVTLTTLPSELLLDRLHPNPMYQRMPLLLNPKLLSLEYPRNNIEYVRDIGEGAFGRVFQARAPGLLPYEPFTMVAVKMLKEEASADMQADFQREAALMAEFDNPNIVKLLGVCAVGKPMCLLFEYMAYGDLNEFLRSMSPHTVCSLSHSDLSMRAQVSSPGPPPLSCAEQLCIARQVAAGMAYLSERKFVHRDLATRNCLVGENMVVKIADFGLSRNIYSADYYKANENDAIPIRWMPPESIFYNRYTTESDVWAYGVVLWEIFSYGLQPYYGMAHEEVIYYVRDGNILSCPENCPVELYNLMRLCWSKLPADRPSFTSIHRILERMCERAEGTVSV

[43] = target: Mitogen-activated protein kinase kinase kinase kinase 1 (Homo sapiens) (UniProt Q92918); conditions: Compound concentration 1000.0 nM
Mitogen-activated protein kinase kinase kinase kinase 1 (Homo sapiens), sequence (Q92918 whole entry, looked up, canonical isoform): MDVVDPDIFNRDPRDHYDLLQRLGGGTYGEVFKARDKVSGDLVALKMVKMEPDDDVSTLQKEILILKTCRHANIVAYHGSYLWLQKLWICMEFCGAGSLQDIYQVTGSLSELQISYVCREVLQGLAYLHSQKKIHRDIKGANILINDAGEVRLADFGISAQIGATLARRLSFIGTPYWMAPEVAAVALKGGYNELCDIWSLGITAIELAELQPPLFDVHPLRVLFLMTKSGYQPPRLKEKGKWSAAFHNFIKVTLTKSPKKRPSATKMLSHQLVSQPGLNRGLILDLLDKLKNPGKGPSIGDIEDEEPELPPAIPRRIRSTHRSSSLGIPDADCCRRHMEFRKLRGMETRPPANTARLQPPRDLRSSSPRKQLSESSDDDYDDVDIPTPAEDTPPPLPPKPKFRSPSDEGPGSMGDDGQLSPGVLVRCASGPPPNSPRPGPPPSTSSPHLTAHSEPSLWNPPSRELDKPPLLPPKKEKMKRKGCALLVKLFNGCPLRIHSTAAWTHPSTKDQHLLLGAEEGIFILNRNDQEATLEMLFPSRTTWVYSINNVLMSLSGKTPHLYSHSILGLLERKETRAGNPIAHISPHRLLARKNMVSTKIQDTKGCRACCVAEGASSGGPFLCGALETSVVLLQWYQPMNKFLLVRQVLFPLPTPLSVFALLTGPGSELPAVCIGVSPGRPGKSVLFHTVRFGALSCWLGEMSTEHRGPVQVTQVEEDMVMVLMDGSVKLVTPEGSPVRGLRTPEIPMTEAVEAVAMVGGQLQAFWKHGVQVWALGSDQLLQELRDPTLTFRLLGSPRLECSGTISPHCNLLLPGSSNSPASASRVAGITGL

[44] = system: Phosphatidylinositol 4,5-bisphosphate 3-kinase catalytic subunit alpha isoform (Homo sapiens), P42336 [M1043I]; conditions: Compound concentration 1000.0 nM

N#CC1(c2ccccn2)CCN(Cc2cc(C(=O)N3CCCC3)c(=O)n3ccccc23)CC1
residual activity [1]: 95%
residual activity [2]: 82%
residual activity [3]: 79%
residual activity [4]: 94%
residual activity [5]: 90%
residual activity [6]: 30%
residual activity [7]: 84%
residual activity [8]: 96%
residual activity [9]: 93%
residual activity [10]: 80%
residual activity [11]: 100%
residual activity [12]: 100%
residual activity [13]: 100%
residual activity [14]: 98%
residual activity [15]: 96%
residual activity [16]: 100%
residual activity [17]: 71%
residual activity [18]: 96%
inhibition [19]: 15.8%
residual activity [20]: 78%
residual activity [21]: 100%
residual activity [22]: 89%
residual activity [23]: 95%
residual activity [24]: 100%
residual activity [25]: 98%
residual activity [26]: 95%
residual activity [27]: 85%
residual activity [28]: 100%
residual activity [29]: 74%
residual activity [30]: 62%
residual activity [31]: 95%
residual activity [32]: 100%
residual activity [33]: 88%
residual activity [34]: 98%
residual activity [35]: 87%
residual activity [36]: 92%
residual activity [37]: 97%
residual activity [38]: 100%
residual activity [39]: 100%
residual activity [40]: 100%
residual activity [41]: 95%
residual activity [42]: 90%
residual activity [43]: 100%
residual activity [44]: 72%

N#CC1(c2ccccn2)CCN(Cc2cc(C(=O)O)c(=O)n3ccccc23)CC1 [MSD-M1PAM]
residual activity [1]: 87%
residual activity [2]: 95%
residual activity [3]: 100%
residual activity [4]: 58%
residual activity [5]: 96%
residual activity [6]: 100%
residual activity [7]: 88%
residual activity [8]: 100%
residual activity [9]: 96%
residual activity [10]: 100%
residual activity [11]: 100%
residual activity [12]: 80%
residual activity [13]: 92%
residual activity [14]: 74%
residual activity [15]: 94%
residual activity [16]: 88%
residual activity [17]: 95%
residual activity [18]: 85%
inhibition [19]: 13.9%
residual activity [20]: 91%
residual activity [21]: 100%
residual activity [22]: 100%
residual activity [23]: 100%
residual activity [24]: 100%
residual activity [25]: 100%
residual activity [26]: 92%
residual activity [27]: 100%
residual activity [28]: 100%
residual activity [29]: 97%
residual activity [30]: 100%
residual activity [31]: 88%
residual activity [32]: 92%
residual activity [33]: 100%
residual activity [34]: 90%
residual activity [35]: 100%
residual activity [36]: 72%
residual activity [37]: 100%
residual activity [38]: 57%
residual activity [39]: 90%
residual activity [40]: 97%
residual activity [41]: 100%
residual activity [42]: 96%
residual activity [43]: 100%
residual activity [44]: 91%
